Results published in patent publication US4988681A, “Phosphinic acid derivatives” (Banyu Pharmaceutical Co., Ltd., priority 1988, dated 1991).
Where two headings read alike, the source gives them in different places.

How the values were obtained:
[1] = Effect on urinary recovery of carbapenem (imipenem) in rats; assay type: in vivo, Male SD rats; conditions: urine up to 8 hours, n = 3
Description: (2) Effect on urinary recovery of carbapenem
Male SD rats (8 week-old) were grouped, three per group. Imipenem alone was intravenously administered in a dose of 10 mg/kg to a first group. […] For comparison, a combination of imipenem (10 mg/kg) and cilastatin (10 mg/kg) was intravenously administered to a fourth group.
The urinary recovery of imipenem was calculated.

[2] = test system: DHP-I; conditions: in words, cited from earlier work
[3] = Pharmacokinetic evaluation: plasma concentration in rats; assay type: in vivo, Male SD rats; conditions: rat; for AUC: trapezoidal rule; for concentration at 0.5 h: 1/2 h; for concentration at 0.25 h: 1/4 h; for concentration at 5 min: 1/12 h
Description: (4) Pharmacokinetic evaluations
Male SD rats ([…]) were divided into groups each consisting of three animals. […] Furthermore, cilastatin was intravenously administered to a 14th group as a control group.
Plasma samples were taken periodically from the carotid artery through a cannula inserted into it at the points of 1/12, 1/4, 1/2, 1, 2, 4, 6, 8 and 24 hours after the administration.
The area under the curve (AUC) of the plasma concentration was determined according to the trapezoidal rule.

[4] = biological target: T1, porcine kidney dehydropeptidase I (Sus scrofa, UniProt P22412); assay: Inhibitory activity on porcine kidney dehydropeptidase I (DHP-I); assay type: biochemical
T1 construct: Frozen porcine kidney cortex was homogenized; from tissue; host or cells: porcine kidney cortex
T1 sequence (P22412 17-409): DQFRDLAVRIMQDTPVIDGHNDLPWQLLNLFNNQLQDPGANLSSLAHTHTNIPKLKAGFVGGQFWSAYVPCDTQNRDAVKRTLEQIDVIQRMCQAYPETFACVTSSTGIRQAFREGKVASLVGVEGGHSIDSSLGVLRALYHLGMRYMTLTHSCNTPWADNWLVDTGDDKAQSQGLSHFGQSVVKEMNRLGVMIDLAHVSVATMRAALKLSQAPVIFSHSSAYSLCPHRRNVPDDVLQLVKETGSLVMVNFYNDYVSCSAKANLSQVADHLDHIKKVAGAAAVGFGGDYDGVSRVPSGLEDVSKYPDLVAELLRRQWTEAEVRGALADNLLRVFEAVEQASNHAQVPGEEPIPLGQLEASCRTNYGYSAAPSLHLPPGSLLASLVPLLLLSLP
Description: (1) Inhibitory activity on porcine kidney dehydropeptidase I
(i) Purification of porcine dehydropeptidase I
Frozen porcine kidney cortex was homogenized. Butanol (1/4 volume) pre-cooled in a dry ice-acetone bath was added to the homogenate, and the mixture was stirred at 4° C. for 43 hours. The mixture was then dialyzed for one day and centrifuged at 3,000 g for 30 minutes. To the resulting supernatant was added ammonium sulfate. A precipitate at the salt concentration range between 50 and 75% was collected to give a crude enzyme preparation which was re-dissolved in a 50 mM MOPS buffer containing 0.5 M NaCl. The solution was charged on a cilastatin affinity column. Elution with a 50 mM MOPS buffer containing 0.5 M NaCN gave a purified enzyme preparation.
(ii) Measurement of inhibitory activity
The resulting enzyme preparation (3 mU) and an inhibitor were pre-incubatedat 37° C. for 3 hours in 2.7 ml of a 50 mM MOPS buffer (pH 7.4), and then 2.475 ml of the mixture was transferred into a cuvette. As a substrate, 25 microliters of a 5 mM glycyldehydrophenylalanine solution in a 50 mM MOPS buffer (pH 7.4) was added to start an enzymic reaction. The reaction was carried out at 37° C. in a spectrophotometer fitted with a constant-emperature device, and a decrease of the absorbance at 275 nm during a period of 5 minutes was measured. […] An IC50 value was calculated from the percent inhibition data.
One unit (U) is defined as the amount of the enzyme which hydrolyzes 1 micromole of the substrate (glycyldehydrophenylalanine) per minute at a substrate concentration of 0.05 mM at 37° C. in a 50 mM MOPS buffer (pH 7.4).

[5] = test system: nephrotoxicity induced by imipenem; assay: Protective action on nephrotoxicity induced by imipenem in rabbits; assay type: in vivo, male Japanese white rabbits; conditions: imipenem 150 mg/kg alone
Description: (3) Protective action on nephrotoxicity induced by carbapenem antibiotics
Twelve male Japanese white rabbits (18 week-old; body weight 3.19-3.54 kg) were divided into three groups each consisting of 4 animals. Imipenem alone was administered in a dose of 150 mg/kg to a first group. To a second group, a combination of imipenem (150 mg/kg) and the compound No. 2 (150 mg/kg) was administered. To a third group as a control, sterilized physiological saline was administered. In all cases, the administration was effected through the auricular vein. Forty-eight hours later, a blood sample was taken from each of the animals, and the BUN and creatinine values were measured. The kidneys of the rabbits were taken and examined histopathologically.

[6] = DHP-I inhibitory compounds of cited literature including cilastatin
[7] = in vivo, iv 10 mg/kg (cilastatin dose not given)
[8] = plasma, iv 10 mg/kg (cilastatin dose not given)
[9] = plasma, iv 10 mg/kg (cilastatin dose not given), N.D.: below the detection limit
[10] = plasma, iv 10 mg/kg, N.D.: below the detection limit
[11] = plasma, po 10 mg/kg, N.D.: below the detection limit
[12] = substrate glycyldehydrophenylalanine, pH 7.4, 37° C., 3 h pre-incubation, read-out: Concentration producing 50% inhibition (IC50)

AUC [3, 8] [ng·h/mL] | AUC ([3]; plasma, po 10 mg/kg) [ng·h/mL] | concentration at 0.5 h [3, 8] [ng/mL] | concentration at 0.25 h [3, 8] [ng/mL] | concentration at 5 min [3, 8] [ng/mL] | concentration at 1 h [3, 9] [ng/mL] | concentration at 2 h ([3]; plasma, iv 10 mg/kg) [ng/mL] | concentration at 4 h ([3]; plasma, iv 10 mg/kg) [ng/mL] | concentration at 6 h [3, 10] [ng/mL] | concentration at 8 h ([3]; plasma, iv 10 mg/kg) [ng/mL] | concentration at 24 h [3, 10] [ng/mL] | concentration at 0.5 h ([3]; plasma, po 10 mg/kg) [ng/mL] | concentration at 0.25 h ([3]; plasma, po 10 mg/kg) [ng/mL] | concentration at 5 min ([3]; plasma, po 10 mg/kg) [ng/mL] | concentration at 1 h ([3]; plasma, po 10 mg/kg) [ng/mL] | concentration at 2 h ([3]; plasma, po 10 mg/kg) [ng/mL] | concentration at 4 h ([3]; plasma, po 10 mg/kg) [ng/mL] | concentration at 6 h ([3]; plasma, po 10 mg/kg) [ng/mL] | concentration at 8 h [3, 11] [ng/mL] | IC50 [4, 12] [nM] | Compound | further results
– | – | – | – | – | – | – | – | – | – | – | – | – | – | – | – | – | – | – | – | CC1(C)C[C@@H]1C(=O)N/C(=C\CCCCSC[C@H](N)C(=O)O)C(=O)O [Cilastatin, reference compound] | Urinary recovery of imipenem, Mean ± S.D. ([1]; inhibitor 10 mg/kg iv with imipenem 10 mg/kg iv): 85.9 ± 2.9%; Activity in oral administration [2, 6]: do not show sufficient activity in oral administration; Duration of action [2, 6]: do not always have satisfactory duration of action; Effect on potential renal toxicity of imipenem ([2]; combined use with imipenem): prevent its potential renal toxicity; Effect on urinary recovery of imipenem ([2]; combined use with imipenem): greatly improve urinary recovery of imipenem; Oral absorption [2]: not orally absorbable; AUC [3, 7]: 12000 ng·h/mL; concentration at 0.5 h [3, 7]: 5800 ng/mL; concentration at 0.25 h [3, 7]: 18800 ng/mL; concentration at 5 min [3, 7]: 46900 ng/mL; IC50 [4]: 100 nM
– | – | – | – | – | – | – | – | – | – | – | – | – | – | – | – | – | – | – | – | C[C@@H](O)[C@H]1C(=O)N2C(C(=O)O)=C(SCCN=CN)C[C@H]12 [Imipenem, reference compound] | Urinary recovery of imipenem, Mean ± S.D. ([1]; imipenem 10 mg/kg iv alone, no inhibitor): 29.6 ± 4.8%; Necrosis of the kidney tissue, number of rabbits which necrotized versus number tested [5]: 4/4; BUN ([5]; auricular vein, 48 hours, * P ≤ 0.05): 70.8 mg/100 ml; Necrosis of the kidney tissue ([5]; grade in words): Marked
82400 | 19000 | 30400 | 40600 | 58100 | 18300 | 11700 | 4800 | 2300 | 1000 | 100 | 3400 | 3100 | 1300 | 2500 | 3000 | 1900 | 1100 | 500 | 50 | O=C(O)/C(=C/C1CCCCC1)CP(=O)(O)CC1CCCCC1 [Compound No. 28, (Z)-3-cyclohexyl-2-(cyclohexylmethylhydroxyphosphinoyl)methylpropenoic acid] | –
226000 | 18400 | 55000 | 74700 | 86700 | 38000 | 25200 | 14800 | 10800 | 6400 | 500 | 5000 | 4100 | 500 | 5000 | 3200 | 2100 | 1000 | 100 | 18 | O=C(O)/C(=C/C1CCCCC1)CP(=O)(O)CC1CCCC1 [Compound No. 17, (Z)-3-cyclohexyl-2-(cyclopentylmethylhydroxyphosphinoyl)methylpropenoic acid] | –
17900 | – | 13900 | 21000 | 28700 | 4200 | 900 | 100 | – | – | – | – | – | – | – | – | – | – | – | 48 | CC(C)CP(=O)(O)C/C(=C\CCCSC[C@H](N)C(=O)O)C(=O)O [Compound No. 23, (Z)-6-[(L)-2-amino-2-carboxyethyl]thio-2-(hydroxyisobutylphosphinoyl)methyl-2-hexenoic acid] | –
88200 | 22500 | 36200 | 49400 | 51900 | 24400 | 11900 | 4700 | 1700 | 900 | 100 | 6400 | 4700 | 2500 | 5300 | 3400 | 2400 | 1100 | 300 | 8.2 | CC1(C)CC1P(=O)(O)C/C(=C\C1CCCCC1)C(=O)O (stereo not shown) [Compound No. 5, (Z)-3-cyclohexyl-2-(2,2-dimethylcyclopropylhydroxyphosphinoyl)methylpropenoic acid] | –
9300 | – | 4600 | 11300 | 28000 | 1400 | 300 | 100 | – | – | – | – | – | – | – | – | – | – | – | 11 | CC(C)CP(=O)(O)C/C(=C\CCCC(=O)O)C(=O)O [Compound No. 14, (Z)-2-(hydroxyisobutylphosphinoyl)methyl-2-heptenedioic acid] | –
